# Experimental data published in PubChem BioAssay AID248 (DTP/NCI, 2004).
# “And” between values parts separate entries of the source, which are not always exact repeats. Equal values may be shown once. Inconclusive results and toxic doses are left out.
# System: L1210 leukemia ip in BDF1 mice, survival T/C
# Experiment: NCI In Vivo Anticancer Drug Screen. Data for tumor model L1210 Leukemia (intraperitoneal) in B6D2F1 (BDF1) mice
# Settings: endpoint: mean survival time, higher = longer survival
# Method in brief: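 Ratio derived from survival: compound-dosed mice over vehicle-dosed mice, all bearing a transplantable tumor.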
# [1] = dose: 100.0 mg/kg/injection, schedule: Q01DX009 (ip), vehicle: saline
# [2] = dose: 100.0 mg/kg/injection, schedule: Q04DX003 (ip), vehicle: saline
# [3] = dose: 200.0 mg/kg/injection, schedule: Q01DX009 (ip), vehicle: saline
# [4] = dose: 200.0 mg/kg/injection, schedule: Q04DX003 (ip), vehicle: saline
# [5] = dose: 50.0 mg/kg/injection, schedule: Q01DX001 (ip), vehicle: saline
# [6] = dose: 100.0 mg/kg/injection, schedule: Q01DX001 (ip), vehicle: saline
# [7] = dose: 200.0 mg/kg/injection, schedule: Q01DX001 (ip), vehicle: saline
# [8] = dose: 25.6 mg/kg/injection, schedule: Q04DX002 (ip), vehicle: saline with Tween-80
# [9] = dose: 64.0 mg/kg/injection, schedule: Q04DX002 (ip), vehicle: saline with Tween-80
# [10] = dose: 100.0 mg/kg/injection, schedule: Q04DX003 (ip), vehicle: saline with Tween-80
# [11] = dose: 160.0 mg/kg/injection, schedule: Q04DX002 (ip), vehicle: saline with Tween-80
# [12] = dose: 200.0 mg/kg/injection, schedule: Q04DX003 (ip), vehicle: saline with Tween-80
# [13] = dose: 400.0 mg/kg/injection, schedule: Q04DX002 (ip), vehicle: saline with Tween-80
# [14] = dose: 400.0 mg/kg/injection, schedule: Q04DX003 (ip), vehicle: saline with Tween-80
# [15] = dose: 50.0 mg/kg/injection, schedule: Q01DX009 (ip), vehicle: saline with Tween-80
# [16] = dose: 100.0 mg/kg/injection, schedule: Q01DX009 (ip), vehicle: saline with Tween-80
# [17] = dose: 200.0 mg/kg/injection, schedule: Q01DX009 (ip), vehicle: saline with Tween-80
compound,measurement,setting,value
O=C1C[N+]2(CCCCC2)c2ccc(Cl)cc2N1,T/C,"dose: 6.25 mg/kg/injection, schedule: Q01DX009 (ip), vehicle: saline",87 % of control
same,T/C,"dose: 6.25 mg/kg/injection, schedule: Q04DX003 (ip), vehicle: saline",91 % of control
same,T/C,"dose: 12.5 mg/kg/injection, schedule: Q01DX009 (ip), vehicle: saline",92 % of control
same,T/C,"dose: 12.5 mg/kg/injection, schedule: Q04DX003 (ip), vehicle: saline",91 % of control
same,T/C,"dose: 25.0 mg/kg/injection, schedule: Q01DX009 (ip), vehicle: saline",95 % of control
same,T/C,"dose: 25.0 mg/kg/injection, schedule: Q04DX003 (ip), vehicle: saline",93 % of control
CCN(CC)CCOc1ccc(C2=C(c3ccccc3)CCc3cc(OC)ccc32)cc1,T/C,"dose: 100.0 mg/kg/injection, schedule: Q01DX001 (ip), vehicle: carboxymethylcellulose (CMC)",90 % of control
same,T/C,"dose: 200.0 mg/kg/injection, schedule: Q01DX001 (ip), vehicle: carboxymethylcellulose (CMC)",92 % of control
same,T/C,"dose: 400.0 mg/kg/injection, schedule: Q01DX001 (ip), vehicle: carboxymethylcellulose (CMC)",90 % of control
COc1cc(C(=O)NNC(=O)c2cccc(C)c2)cc(OC)c1OC,T/C,"dose: 100.0 mg/kg/injection, schedule: Q01DX009 (ip), vehicle: Klucel (hydroxypropylcellulose) (HPC)",100 % of control
same,T/C,"dose: 200.0 mg/kg/injection, schedule: Q01DX009 (ip), vehicle: Klucel (hydroxypropylcellulose) (HPC)",95 % of control
same,T/C,"dose: 400.0 mg/kg/injection, schedule: Q01DX009 (ip), vehicle: Klucel (hydroxypropylcellulose) (HPC)",105 % of control
CO[C@@H]1CCCCCC[C@H]1[Hg][Cl],T/C,"dose: 2.0 mg/kg/injection, schedule: Q01DX015 (ip), vehicle: carboxymethylcellulose (CMC)",104 % of control
same,T/C,"dose: 4.0 mg/kg/injection, schedule: Q01DX015 (ip), vehicle: carboxymethylcellulose (CMC)",95 % of control
same,T/C,"dose: 5.0 mg/kg/injection, schedule: Q01DX001 (ip), vehicle: carboxymethylcellulose (CMC)",108 % of control
same,T/C,"dose: 8.0 mg/kg/injection, schedule: Q01DX015 (ip), vehicle: carboxymethylcellulose (CMC)",101 % of control
same,T/C,"dose: 10.0 mg/kg/injection, schedule: Q01DX001 (ip), vehicle: carboxymethylcellulose (CMC)",112 % of control
same,T/C,"dose: 16.0 mg/kg/injection, schedule: Q01DX015 (ip), vehicle: carboxymethylcellulose (CMC)",93 % of control
same,T/C,"dose: 20.0 mg/kg/injection, schedule: Q01DX001 (ip), vehicle: carboxymethylcellulose (CMC)",114 % of control
same,T/C,"dose: 40.0 mg/kg/injection, schedule: Q01DX001 (ip), vehicle: carboxymethylcellulose (CMC)",108 % of control
CN(N=O)C(=O)NC(=O)N(C)N=O,T/C,"dose: 18.0 mg/kg/injection, schedule: Q01DX Z (ip), vehicle: carboxymethylcellulose (CMC)",155 % of control
same,T/C,"dose: 27.5 mg/kg/injection, schedule: Q01DX001 (ip), vehicle: carboxymethylcellulose (CMC)",110 % of control
same,T/C,"dose: 54.0 mg/kg/injection, schedule: Q01DX001 (ip), vehicle: carboxymethylcellulose (CMC)",118 % of control
same,T/C,"dose: 75.0 mg/kg/injection, schedule: Q01DX Z (ip), vehicle: carboxymethylcellulose (CMC)",87 % of control
same,T/C,"dose: 108.0 mg/kg/injection, schedule: Q01DX001 (ip), vehicle: carboxymethylcellulose (CMC)",86 % of control
OC1COCOC1 (tested in a mixture with another compound),T/C,[1],104 % of control
same,T/C,[2],105 % of control
same,T/C,[3],104 % of control
same,T/C,[4],102 % of control
same,T/C,"dose: 400.0 mg/kg/injection, schedule: Q01DX009 (ip), vehicle: saline",111 % of control
same,T/C,"dose: 400.0 mg/kg/injection, schedule: Q04DX003 (ip), vehicle: saline",109 % of control
O=[N+]([O-])c1ccc(/C=C/C2OCCO2)cc1,T/C,[5],98 % of control
same,T/C,[6],96 % of control
same,T/C,[7],101 % of control
CCOC(=O)CCC1(CN2c3ccccc3Sc3ccccc32)CCN(C)C1 (stereo unspecified),T/C,[6],87 % of control
CCOC(=O)C(C(C)=O)C(c1ccccc1)C(C(C)=O)C(=O)OCC (stereo unspecified),T/C,[8],97 % of control
same,T/C,[9],104 % of control
same,T/C,[10],101 % of control
same,T/C,[11],112 % of control
same,T/C,[12],98 % of control
same,T/C,[13],104 % of control
same,T/C,[14],93 % of control
N\C([S-])=N/N=C\C(=N/N=C(\N)[S-])C(O)C(O)C(O)CO.[Pd+2] (stereo unspecified),T/C,[2],93 % of control
same,T/C,[4],91 % of control
COc1nc(N/N=C/c2ccccc2O)ccc1[N+](=O)[O-],T/C,"dose: 100.0 mg/kg/injection, schedule: Q04DX003 (ip), vehicle: Klucel (hydroxypropylcellulose) (HPC)",93 % of control
same,T/C,"dose: 200.0 mg/kg/injection, schedule: Q04DX003 (ip), vehicle: Klucel (hydroxypropylcellulose) (HPC)",93 % of control
same,T/C,"dose: 400.0 mg/kg/injection, schedule: Q04DX003 (ip), vehicle: Klucel (hydroxypropylcellulose) (HPC)",95 % of control
NC(=O)NC(=O)/C=C/C(=O)O,T/C,[15],100 % of control
same,T/C,[16],94 % of control
same,T/C,[10],92 % of control
same,T/C,[12],90 % of control
NNc1nncn1N,T/C,"dose: 50.0 mg/kg/injection, schedule: Q01DX009 (ip), vehicle: saline",101 % of control
same,T/C,[1],102 % of control
same,T/C,[2],97 % of control
same,T/C,[3],103 % of control
same,T/C,[4],94 % of control
CCOC(=O)c1cccc2nc3n(c12)CCC3,T/C,[15],105 % of control
same,T/C,"dose: 100.0 mg/kg/injection, schedule: Q01DX001 (ip), vehicle: saline with Tween-80",101 % of control
same,T/C,[16],95 % of control
same,T/C,"dose: 200.0 mg/kg/injection, schedule: Q01DX001 (ip), vehicle: saline with Tween-80",103 % of control
same,T/C,[17],94 % of control
C(=N\Nc1nnc(N/N=C/c2cccc(OCc3ccccc3)c2)c2ccccc12)/c1cccc(OCc2ccccc2)c1,T/C,[5],101 % of control
same,T/C,[6],95 % of control
same,T/C,[7],92 % of control
same,T/C,"dose: 400.0 mg/kg/injection, schedule: Q01DX001 (ip), vehicle: saline",97 % of control
CN(C)Cc1ccnc(Cl)n1,T/C,"dose: 2.0 mg/kg/injection, schedule: Q01DX Z (ip), vehicle: methylcellulose (MC)",93 % of control
O=C(Nc1ccc(S(=O)(=O)F)cc1)c1ccc(COc2ccc([N+](=O)[O-])cc2Cl)cc1,T/C,[16],92 % of control
same,T/C,[17],94 % of control
same,T/C,"dose: 400.0 mg/kg/injection, schedule: Q01DX009 (ip), vehicle: saline with Tween-80",94 % of control
O=C(C=C(C(F)(F)F)C(F)(F)F)c1ccc([N+](=O)[O-])cc1,T/C,"dose: 3.13 mg/kg/injection, schedule: Q01DX009 (ip), vehicle: other",105 % of control
same,T/C,"dose: 3.13 mg/kg/injection, schedule: Q04DX003 (ip), vehicle: other",100 % of control
same,T/C,"dose: 6.25 mg/kg/injection, schedule: Q01DX009 (ip), vehicle: other",110 % of control
same,T/C,"dose: 6.25 mg/kg/injection, schedule: Q04DX003 (ip), vehicle: other",95 % of control
same,T/C,"dose: 12.5 mg/kg/injection, schedule: Q04DX003 (ip), vehicle: other",100 % of control and 103 % of control
same,T/C,"dose: 25.0 mg/kg/injection, schedule: Q04DX003 (ip), vehicle: other",96 % of control
S=C(SC(=S)N(C1CCCCC1)C1CCCCC1)N(C1CCCCC1)C1CCCCC1,T/C,"dose: 25.0 mg/kg/injection, schedule: Q01DX009 (ip), vehicle: saline with Tween-80",92 % of control
same,T/C,[15],90 % of control
same,T/C,[16],86 % of control and 89 % of control
CCOC(=O)c1ccc(N=Cc2cnc(N)nc2N)cc1,T/C,"dose: 100.0 mg/kg/injection, schedule: Q01DX001 (ip), vehicle: other",93 % of control
same,T/C,"dose: 200.0 mg/kg/injection, schedule: Q01DX001 (ip), vehicle: other",87 % of control
same,T/C,"dose: 400.0 mg/kg/injection, schedule: Q01DX001 (ip), vehicle: other",93 % of control
CCC(C(=O)O)N1C(=O)C2C3C=CC(C3)C2C1=O (stereo unspecified),T/C,[10],94 % of control and 96 % of control
same,T/C,[12],96 % of control and 105 % of control
same,T/C,[14],105 % of control
Fc1c(F)c(F)c(-c2ccccc2)c(F)c1F,T/C,[8],92 % of control
same,T/C,[9],95 % of control
same,T/C,[11],95 % of control
same,T/C,[13],95 % of control
N#C/C(=C/c1cc([N+](=O)[O-])c(O)c([N+](=O)[O-])c1)C(N)=O,T/C,"dose: 75.0 mg/kg/injection, schedule: Q01DX001 (ip), vehicle: saline",96 % of control
same,T/C,"dose: 150.0 mg/kg/injection, schedule: Q01DX001 (ip), vehicle: saline",98 % of control
same,T/C,"dose: 300.0 mg/kg/injection, schedule: Q01DX001 (ip), vehicle: saline",95 % of control
